Laboratory results taken from publication doi:10.1101/2021.01.27.428399v1 (biorxiv, 2021).

Biological target: T1, GluR0 (Synechocystis sp. PCC 6803, UniProt P73797)
T1 sequence (P73797 20-397): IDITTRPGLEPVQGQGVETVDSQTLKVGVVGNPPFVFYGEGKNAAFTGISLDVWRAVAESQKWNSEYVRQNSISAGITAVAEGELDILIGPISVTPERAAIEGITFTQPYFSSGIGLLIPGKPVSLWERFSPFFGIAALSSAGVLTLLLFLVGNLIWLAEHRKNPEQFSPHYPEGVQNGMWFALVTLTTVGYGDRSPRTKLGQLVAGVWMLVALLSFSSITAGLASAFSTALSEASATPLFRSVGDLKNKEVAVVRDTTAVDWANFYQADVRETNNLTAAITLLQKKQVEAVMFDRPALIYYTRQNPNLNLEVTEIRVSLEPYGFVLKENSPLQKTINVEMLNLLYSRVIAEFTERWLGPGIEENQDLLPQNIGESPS
Test: two-electrode voltage clamp, Xenopus oocytes
Type: cell-based

- EC50: 29.9 ± 5 µM
SMILES: N[C@@H](CCC(=O)O)C(=O)O [L-glutamate]
